Molecular target: T1, HCV polymerase (Hepatitis C virus genotype 1b, UniProt P26663)
T1 construct: 2.5 pmoles (0.15 μg) HCV polymerase protein in a final volume of 75 μL
Experiment: HCV polymerase primer/template-directed transcription assay (32P-GTP incorporation, filter binding)
Type: biochemical
Settings: for IC50: recombinant HCV polymerase, 30 minutes at 30° C., concentration giving 50% inhibition of polymerase-directed transcription, read-out: IC50
Procedure, shortened: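 Recombinant genotype 1b polymerase (30 nM) extended biotin-dG12 primer on poly(rC)300 template with 1 μM GTP plus α-32P-GTP, pH 7.2, 10 mM MgCl2, 30 min at 30° C, 1% DMSO final. Products captured on DE filters and counted. IC50 fitted from triplicate cpm, with a tight-binding correction applied below 200 nM.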

T1 sequence (P26663 2420-3010): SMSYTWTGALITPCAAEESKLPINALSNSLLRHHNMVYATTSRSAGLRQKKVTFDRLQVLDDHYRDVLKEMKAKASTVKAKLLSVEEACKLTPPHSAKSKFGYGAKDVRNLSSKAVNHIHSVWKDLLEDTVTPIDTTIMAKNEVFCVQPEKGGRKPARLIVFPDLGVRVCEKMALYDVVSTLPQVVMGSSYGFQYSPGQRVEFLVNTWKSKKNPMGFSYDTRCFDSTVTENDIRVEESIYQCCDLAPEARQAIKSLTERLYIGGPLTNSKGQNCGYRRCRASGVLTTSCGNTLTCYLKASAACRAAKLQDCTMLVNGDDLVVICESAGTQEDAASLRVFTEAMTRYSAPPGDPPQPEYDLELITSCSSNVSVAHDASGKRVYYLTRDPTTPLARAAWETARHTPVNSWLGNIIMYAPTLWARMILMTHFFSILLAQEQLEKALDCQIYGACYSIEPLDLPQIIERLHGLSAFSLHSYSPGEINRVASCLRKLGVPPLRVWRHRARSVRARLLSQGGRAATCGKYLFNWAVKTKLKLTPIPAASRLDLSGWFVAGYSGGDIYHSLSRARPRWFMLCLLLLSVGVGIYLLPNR

Row | SMILES | IC50 [µM] | inhibition at 50 µM (@ 50 uM compound, given where IC50 was impractical to calculate, read-out: percent inhibition) [%]
1 | N#CC1(c2ccc(CCC3(C4CCCC4)CC(=O)CC(=O)O3)cc2F)CCCC1 (stereo not shown) [A(189), 1-{4-[2-(2-Cyclopentyl-4,6-dioxo-tetrahydro-pyran-2-yl)-ethyl]-2-fluoro-phenyl}-cyclopentanecarbonitrile] | 2.9 | –
2 | COc1cc(OC)c(CCC2(C3CCCC3)CC(O)=C(Sc3nc4nc[nH]c(=O)c4[nH]3)C(=O)O2)cc1Cl (stereo not shown) [C(70), 8-({6-[2-(5-chloro-2,4-dimethoxyphenyl)ethyl]-6-cyclopentyl-4-hydroxy-2-oxo-5,6-dihydro-2H-pyran-3-yl}thio)-1,7-dihydro-6H-purin-6-one] | 0.0074 | –
3 | O=C1CC(=O)OC(CCc2ccc(C(=O)C3CC3)cc2)(C2CCCC2)C1 (stereo not shown) [A(32), 6-Cyclopentyl-6-[2-(4-cyclopropanecarbonyl-phenyl)-ethyl]-dihydro-pyran-2,4-dione] | 5.2 | –
4 | COc1ccc(CCC2(C3CCCC3)CC(O)=C(Cc3nc4cc(OC)c(OC)cc4c(=O)[nH]3)C(=O)O2)cc1Cl (stereo not shown) [B(57), 2-({6-[2-(3-chloro-4-methoxyphenyl)ethyl]-6-cyclopentyl-4-hydroxy-2-oxo-5,6-dihydro-2H-pyran-3-yl}methyl)-6,7-dimethoxyquinazolin-4(3H)-one] | 0.05 | –
5 | CCC(C#N)(CC)c1ccc(CCC2(C3CCCC3)CC(=O)CC(=O)O2)cc1F (stereo not shown) [A(91), 2-{4-[2-(2-Cyclopentyl-4,6-dioxo-tetrahydro-pyran-2-yl)-ethyl]-2-fluoro-phenyl}-2-ethyl-butyronitrile] | 0.5 | –
6 | COC(=O)C1(c2cccc(CCC3(C4CCCC4)CC(=O)CC(=O)O3)c2)CC1 (stereo not shown) [A(69), 1-{3-[2-(2-Cyclopentyl-4,6-dioxo-tetrahydro-pyran-2-yl)-ethyl]-phenyl}-cyclopropanecarboxylic acid methyl ester] | 9.9 | –
7 | COc1ccc(CCC2(C3CCCC3)CC(O)=C(C(=O)Cc3ccccn3)C(=O)O2)cc1Cl (stereo not shown) [B(87), 6-[2-(3-Chloro-4-methoxy-phenyl)-ethyl]-6-cyclopentyl-4-hydroxy-3-(2-pyridin-2-yl-acetyl)-5,6-dihydro-pyran-2-one] | 1.8 | –
8 | COc1cc(OC)c(CCC2(C3CCCC3)CC(O)=C(Sc3nnc(O)n3C(C)C)C(=O)O2)cc1Cl (stereo not shown) [C(80), 6-[2-(5-chloro-2,4-dimethoxyphenyl)ethyl]-6-cyclopentyl-4-hydroxy-3-[(5-hydroxy-4-isopropyl-4H-1,2,4-triazol-3-yl)thio]-5,6-dihydro-2H-pyran-2-one] | 0.031 | –
9 | COc1ccc(CCC2(C3CCCC3)CC(O)=C(Sc3nnc(-c4ccccc4)[nH]3)C(=O)O2)cc1Cl (stereo not shown) [C(22), 6-[2-(3-Chloro-4-methoxy-phenyl)-ethyl]-6-cyclopentyl-3-(5-phenyl-4H-[1,2,4]triazol-3-ylsulfanyl)-dihydro-pyran-2,4-dione] | 0.068 | –
10 | CCc1cc(CCC2(C3CCCC3)CC(=O)CC(=O)O2)cc(F)c1O (stereo not shown) [A(124), 6-Cyclopentyl-6-[2-(3-ethyl-5-fluoro-4-hydroxy-phenyl)-ethyl]-dihydro-pyran-2,4-dione] | 0.35 | –
11 | CCc1cccc(CCC2(C3CCCC3)CC(=O)CC(=O)O2)c1 (stereo not shown) [A(66), 6-Cyclopentyl-6-[2-(3-ethyl-phenyl)-ethyl]-dihydro-pyran-2,4-dione] | 3.6 | –
12 | COc1ccc(CCC2(C3CCCC3)CC(=O)C(Cc3ccncc3)C(=O)O2)cc1Cl (stereo not shown) [B(82), 6-[2-(3-chloro-4-methoxyphenyl)ethyl]-6-cyclopentyl-3-(pyridin-4-ylmethyl)dihydro-2H-pyran-2,4(3H)-dione] | 0.68 | –
13 | COc1ccc(CCC2(C3CCCC3)CC(O)=C(C(=O)Cc3cc(C)no3)C(=O)O2)c(OC)c1 (stereo not shown) [B(86), 6-Cyclopentyl-6-[2-(2,4-dimethoxy-phenyl)-ethyl]-4-hydroxy-3-[2-(3-methyl-isoxazol-5-yl)-acetyl]-5,6-dihydro-pyran-2-one] | 22.1 | –
14 | O=C1CC(=O)OC(CCc2ccc(OC(F)F)cc2)(C2CCCC2)C1 (stereo not shown) [A(58), 6-Cyclopentyl-6-[2-(4-difluoromethoxy-phenyl)-ethyl]-dihydro-pyran-2,4-dione] | 6.5 | –
15 | NS(=O)(=O)c1cccc(C#CCCC2(C3CCCC3)CC(=O)CC(=O)O2)c1 (stereo not shown) [F(2), 3-[4-(2-Cyclopentyl-4,6-dioxo-tetrahydro-pyran-2-yl)-but-1-ynyl]-benzenesulfonamide] | 7.2 | –
16 | Cc1nc[nH]c1CC1C(=O)CC(CCc2ccc(C(C)(C)C#N)c(F)c2)(C2CCCC2)OC1=O (stereo not shown) [A(107), 2-(4-{2-[2-Cyclopentyl-5-(5-methyl-3H-imidazol-4-ylmethyl)-4,6-dioxo-tetrahydro-pyran-2-yl]-ethyl}-2-fluoro-phenyl)-2-methyl-propionitrile] | 0.36 | –
17 | COc1ccc(CCC2(C3CCCC3)CC(O)=C(Cc3cc(=O)[nH]c(-c4ccccn4)n3)C(=O)O2)cc1 (stereo not shown) [B(66), 6-({6-Cyclopentyl-4-hydroxy-6-[2-(4-methoxyphenyl)ethyl]-2-oxo-5,6-dihydro-2H-pyran-3-yl}methyl)-2-pyridin-2-ylpyrimidin-4(3H)-one] | 0.22 | –
18 | CCc1ccc(O)c(CCC2(C3CCCC3)CC(O)=C(Cc3nc4ncccn4n3)C(=O)O2)c1 (stereo not shown) [A(176), 6-Cyclopentyl-6-[2-(5-ethyl-2-hydroxy-phenyl)-ethyl]-4-hydroxy-3-[1,2,4]triazolo[1,5-a]pyrimidin-2-ylmethyl-5,6-dihydro-pyran-2-one] | 0.006 | –
19 | COc1ccc(CCC2(C3CCCC3)CC(=O)C(Cc3ccc4ccccc4n3)C(=O)O2)cc1Cl (stereo not shown) [B(85), 6-[2-(3-chloro-4-methoxyphenyl)ethyl]-6-cyclopentyl-3-(quinolin-2-ylmethyl)dihydro-2H-pyran-2,4(3H)-dione] | 0.74 | –
20 | CC(C)Oc1ccc(CCC2(C3CCCC3)CC(=O)CC(=O)O2)cc1F (single isomer, unassigned) [J(2), 6-cyclopentyl-6-[2-(3-fluoro-4-isopropoxyphenyl)ethyl]dihydro-2H-pyran-2,4(3H)-dione] | 3.9 | –
21 | CCc1cc(CCC2(C3CCCC3)CC(O)=C(Cc3nc4nc(C)cc(C)n4n3)C(=O)O2)ccc1OC(C)C (stereo not shown) [B(102), 6-Cyclopentyl-3-(5,7-dimethyl-[1,2,4]triazolo[1,5-a]pyrimidin-2-ylmethyl)-6-[2-(3-ethyl-4-isopropoxy-phenyl)-ethyl]-4-hydroxy-5,6-dihydro-pyran-2-one] | 0.5 | –
22 | Cc1cc(C)n2nc(CC3=C(O)CC(CCc4ccc(C(C)(C)O)c(F)c4)(C4CCCC4)OC3=O)nc2n1 (stereo not shown) [A(217), 6-cyclopentyl-3-[(5,7-dimethyl[1,2,4]triazolo[1,5-a]pyrimidin-2-yl)methyl]-6-{2-[3-fluoro-4-(1-hydroxy-1-methylethyl)phenyl]ethyl}-4-hydroxy-5,6-dihydro-2H-pyran-2-one] | 0.014 | –
23 | O=C1CC(=O)OC(CCN2CCCC2=O)(C2CCCC2)C1 (stereo not shown) [A(14), 6-Cyclopentyl-6-[2-(2-oxo-pyrrolidin-1-yl)-ethyl]-dihydro-pyran-2,4-dione] | – | 35
24 | COc1ccc(CCC2(C3CCCC3)CC(O)=C(Sc3nc4cnccc4[nH]3)C(=O)O2)cc1Cl (stereo not shown) [C(46), 6-[2-(3-chloro-4-methoxyphenyl)ethyl]-6-cyclopentyl-4-hydroxy-3-(1H-imidazo[4,5-c]pyridin-2-ylthio)-5,6-dihydro-2H-pyran-2-one] | 0.037 | –
25 | COc1ccc(CCC2(C3CCCC3)CC(O)=C(SCc3ccccn3)C(=O)O2)cc1Cl (stereo not shown) [C(107), 6-[2-(3-chloro-4-methoxyphenyl)ethyl]-6-cyclorpentyl-4-hydroxy-3-[(pyridin-2-ylmethyl)thio]-5,6-dihydro-2H-pyran-2-one] | 0.16 | –

— patent US7473790B2 (Pfizer Inc., priority 2003, dated 2009)
